{"source": "paper PMC5216742", "about": "“Discovery and characterization of a novel potent type II native and mutant BCR-ABL inhibitor (CHMFL-074) for Chronic Myeloid Leukemia (CML)” (Oncotarget, 2016)", "key": {"[1]": {"test_system": "normal human B-cells purified from the peripheral blood", "experiment": "Proliferation assay on normal cells from peripheral blood", "format": "cell-based", "settings": "at 1 μM", "method": "(§1) Mononuclear cells were isolated from CML patients or healthy donors by density-gradient centrifugation through Ficoll (Beijing Solarbio Science & Technology Co., Ltd., Beijing, China) at 400 g for 30 min, followed by two washes in 1× phosphate-buffered saline. Cells were then cultured in liquid culture (RPMI1640, supplemented with 20% FBS). All blood samples from CML patients and healthy donors were obtained through written consent under approval of the Chinese Academy of Sciences Institutional Review Board. The ethics committees approved the consent Procedure. CML primary patient cells were tested in liquid culture (RPMI1640, supplemented with 20% FBS) in the presence of different concentrations of CHMFL-074. The trypan blue exclusion assay was used for quantification of cells for seeding for before Cell-Titer Glo assays (Promega, USA). The Cell-Titer Glo assay was used for proliferation studies and carried out according to manufacturer's instructions. Cell viability is reported as percentages of control (untreated) cells."}, "[2]": {"test_system": "K562, KU812 and MEG-01 cells", "experiment": "Cell cycle analysis", "format": "cell-based", "settings": "K562 (24 h), KU812 (12 h), MEG-01 (24 h)", "method": "K562, KU812 and MEG01 cells were treated with serially diluted CHMFL-074 for 12 or 24 hours. The cells were fixed in 70% cold ethanol and incubated at −20°C overnight, then stained with PI/RNase staining buffer (BD Pharmingen). Flow cytometry was performed using a FACS Calibur (BD), and results were analyzed by ModFit software."}, "[3]": {"test_system": "BCR-ABL positive CML patient primary cells", "experiment": "Patient primary cell proliferation assay", "format": "cell-based", "settings": "Homo sapiens, read-out: half effective inhibitory concentrations", "method": "as §1"}, "[4]": {"biological_target": "T1, ABL1(H396P)-nonphosphorylated (Homo sapiens, UniProt P00519, H396P)", "T1 construct": "purchased DiscoveRx (KinomeScan service)", "experiment": "KinomeScan profiling", "format": "binding", "settings": "1 µM CHMFL-074; read-out: % Control"}, "[5]": {"experiment": "In vivo pharmacokinetics study", "settings": "male, Sprague-Dawley, plasma, rat; for MRT inf: read-out: MRT(0-∞)", "method": "The final concentration of the stock solution was 1 mg/mL for administration. […] Each time about 0.2 mL blood was collected through the jugular vein adding heparin for anticoagulation and kept on ice. Then plasma was separated by centrifugation at 8000 rpm for 6 minutes at 2–8°C. The obtained plasma was stored at −80°C before analysis. After finishing the test, all surviving animals will be transferred to the repository or euthanasia (CO2 asphyxiation)."}, "[6]": {"test_system": "KU812", "experiment": "Colony formation assay", "format": "cell-based", "settings": "Homo sapiens", "method": "(§2) In brief, 1 mL of 3% agarose combined with 1 mL KU812, MEG01, or K562 growth media was used as the bottom agar in a 6-well plate. 800 cells in 1.7 mL growth media was combined with 0.3 ml of 3% agarose solution and plated on top of the bottom layer. Cells were maintained in a humidified 5% CO2 incubator at 37°C for 15 days, and continuously treated with serially diluted CHMFL-074 in a soft agar medium. On the 15th day, the number of colonies in each well were counted and each measurement was performed in triplicate."}, "[7]": {"test_system": "K562", "experiment": "Colony formation assay", "format": "cell-based", "settings": "Homo sapiens", "method": "as §2"}, "[8]": {"test_system": "MEG-01", "experiment": "Colony formation assay", "format": "cell-based", "settings": "Homo sapiens", "method": "as §2"}, "[9]": {"biological_target": "T2, ABL1 kinase (Homo sapiens, UniProt P00519)", "T2 construct": "A construct encoding c-ABL residues 229–500 with a His tag; made in house; host or cells: SF9 insect cells (baculovirus, pFASTHTA)", "experiment": "Invitrogen Z'LYTE biochemical kinase assay", "method": "A construct encoding c-ABL residues 229–500 with a His tag was cloned into baculovirus expression vector pFASTHTA. The protein was expressed by infecting SF9 cells with high titer viral stocks for 48 hours. Cells were harvested and lysed in 30 mM Tris pH 7.4, 150 mM NaCl, 3 mM KCl, 10% glycerol, 1 mM PMSF, 2 mM TCEP, 1 mM ADP, 20 mM Imidazole. The supernatant was loaded to Ni-NTA Column (QIAGEN, 1018244). Then the proteins were gradient washed using the same buffer with 50 mM, 100 mM imidazole, then the ABL protein was eluted with Elution buffer (20 mM Tris, 500 mM NaCl, 1% glycerol, 1 mM TCEP, 0.5 mM ADP, 300 mM Imidazole, pH 8.0). The eluted protein was loaded on desalt column PD-10(GE) to change the buffer to 20 mM Tris, 500 mM NaCl, 1% glycerol, 2 mM TCEP, pH 8.0. The protein was concentrated to 1 mg/ml and aliquots were frozen and stored at −80 °C.\nThe fluorescence resonance energy transfer-based Z′-LYTE kinase assay (Invitrogen, USA) was used to evaluate the IC50 value of CHMFL-074 for inhibition of ABL and KIT kinase. […] After 1 hour incubation, the reaction was developed and terminated, and the fluorescence measured with an automated plate reader (SpectraMax I3, USA). […]"}, "[10]": {"biological_target": "T3, c-KIT (Homo sapiens, UniProt P10721)", "T3 construct": "made in house", "T3 sequence (P10721 26-976)": "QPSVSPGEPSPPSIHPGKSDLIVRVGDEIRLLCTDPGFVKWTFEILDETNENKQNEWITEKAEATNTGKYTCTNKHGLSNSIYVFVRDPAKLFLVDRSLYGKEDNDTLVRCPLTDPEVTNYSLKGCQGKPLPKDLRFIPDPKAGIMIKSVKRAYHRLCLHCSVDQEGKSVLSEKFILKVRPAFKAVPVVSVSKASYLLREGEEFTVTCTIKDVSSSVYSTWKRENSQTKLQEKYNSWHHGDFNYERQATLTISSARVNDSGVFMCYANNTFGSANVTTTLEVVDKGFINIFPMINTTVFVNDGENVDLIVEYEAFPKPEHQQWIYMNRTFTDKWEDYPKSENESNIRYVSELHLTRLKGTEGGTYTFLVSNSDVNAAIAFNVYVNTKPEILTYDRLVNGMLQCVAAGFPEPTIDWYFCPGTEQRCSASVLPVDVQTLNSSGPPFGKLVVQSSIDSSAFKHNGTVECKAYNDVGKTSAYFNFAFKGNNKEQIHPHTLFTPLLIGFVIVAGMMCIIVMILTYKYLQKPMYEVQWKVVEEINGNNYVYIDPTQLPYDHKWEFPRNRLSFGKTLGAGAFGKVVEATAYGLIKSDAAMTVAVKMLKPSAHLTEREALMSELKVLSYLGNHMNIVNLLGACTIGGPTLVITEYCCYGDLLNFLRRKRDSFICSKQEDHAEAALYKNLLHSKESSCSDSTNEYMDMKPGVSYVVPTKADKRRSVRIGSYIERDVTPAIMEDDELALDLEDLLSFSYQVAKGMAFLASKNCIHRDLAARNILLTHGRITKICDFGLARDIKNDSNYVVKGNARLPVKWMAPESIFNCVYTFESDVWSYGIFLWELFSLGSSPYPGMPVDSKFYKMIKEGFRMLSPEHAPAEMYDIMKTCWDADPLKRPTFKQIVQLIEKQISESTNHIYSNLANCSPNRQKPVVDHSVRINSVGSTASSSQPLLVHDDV", "experiment": "Invitrogen Z'LYTE biochemical kinase assay", "method": "The fluorescence resonance energy transfer-based Z'-LYTE kinase assay (Invitrogen, USA) was used to evaluate the IC50 value of CHMFL-074 for inhibition of ABL and KIT kinase. […] After 1 hour incubation, the reaction was developed and terminated, and the fluorescence measured with an automated plate reader (SpectraMax I3, USA). A dose-response curve was fitted using Prism 5.0 (GraphPad Software Inc., San Diego, CA)."}}, "note": "Like-named read-outs stand apart in the source and are kept apart here.", "data": [{"compound": "Cc1ccc(NC(=O)c2ccc(CN3CCN(C)CC3)c(C(F)(F)F)c2)cc1OC1CCN(C(=O)c2cccnc2)CC1", "note": "[CHMFL-074]", "values": [{"measurement": "inhibitory activity against normal human B-cells", "setting": "[1]", "result": "did not show any inhibitory activities"}, {"measurement": "concentration inducing G0/G1 phase cell cycle arrest", "setting": "[2]", "result": "≥ 0.3", "unit": "µM"}, {"measurement": "IC50", "setting": "[3]", "result": "0.3 to 1", "unit": "µM"}, {"measurement": "remaining binding at 1 µM", "setting": "[4]", "result": 0.15, "unit": "%"}, {"measurement": "AUC(0-inf)", "setting": "[5]; IV 1mg/kg, mean", "result": 0.34, "unit": "µg·h/mL"}, {"measurement": "AUC(0-t)", "setting": "[5]; IV 1mg/kg, mean", "result": 0.337, "unit": "µg·h/mL"}, {"measurement": "Cmax", "setting": "[5]; IV 1mg/kg, mean", "result": 0.739, "unit": "µg/mL"}, {"measurement": "Tmax", "setting": "[5]; IV 1mg/kg, mean", "result": 0.02, "unit": "h"}, {"measurement": "half-life", "setting": "[5]; IV 1mg/kg, mean", "result": 1.23, "unit": "h"}, {"measurement": "clearance", "setting": "[5]; IV 1mg/kg, mean, read-out: CLz (converted)", "result": 2.96, "unit": "L/h/kg"}, {"measurement": "MRT inf", "setting": "[5]; IV 1mg/kg, mean", "result": 1.29, "unit": "h"}, {"measurement": "Vd", "setting": "[5]; IV 1mg/kg, mean, read-out: Vz", "result": 5.25, "unit": "L/kg"}, {"measurement": "AUC(0-inf)", "setting": "[5]; PO 10 mg/kg, mean", "result": 1.46, "unit": "µg·h/mL"}, {"measurement": "AUC(0-t)", "setting": "[5]; PO 10 mg/kg, mean", "result": 1.13, "unit": "µg·h/mL"}, {"measurement": "Cmax", "setting": "[5]; PO 10 mg/kg, mean", "result": 0.19, "unit": "µg/mL"}, {"measurement": "Tmax", "setting": "[5]; PO 10 mg/kg, mean", "result": 4, "unit": "h"}, {"measurement": "half-life", "setting": "[5]; PO 10 mg/kg, mean", "result": 3.38, "unit": "h"}, {"measurement": "MRT inf", "setting": "[5]; PO 10 mg/kg, mean", "result": 6.58, "unit": "h"}, {"measurement": "bioavailability", "setting": "[5]; PO 10 mg/kg, read-out: F (bioavailability)", "result": 42.9, "unit": "%"}, {"measurement": "EC50", "setting": "[6]; 360 h, KU812, soft agar, 15 days", "result": 0.008, "unit": "µM"}, {"measurement": "IC50", "setting": "[6]; KU812, read-out: anti-colony formation IC50", "result": 0.008, "unit": "µM"}, {"measurement": "EC50", "setting": "[7]; 360 h, K562, soft agar, 15 days", "result": 0.004, "unit": "µM"}, {"measurement": "IC50", "setting": "[7]; K562, read-out: anti-colony formation IC50", "result": 0.004, "unit": "µM"}, {"measurement": "EC50", "setting": "[8]; 360 h, MEG-01, soft agar, 15 days", "result": 0.012, "unit": "µM"}, {"measurement": "IC50", "setting": "[8]; MEG-01, read-out: anti-colony formation IC50", "result": 0.012, "unit": "µM"}, {"measurement": "IC50", "setting": "[9]", "result": 0.025, "unit": "µM"}, {"measurement": "fold less active against c-KIT than ABL1 kinase", "setting": "[10]", "result": "about 12 fold"}, {"measurement": "IC50", "setting": "[10]; ATP 300 μM, read-out: IC50 against c-KIT", "result": 0.289, "unit": "µM"}]}]}
